Test results taken from patent publication US10479780B2, “Aminopyrazole derivatives” (Chugai Seiyaku Kabushiki Kaisha, priority 2015, dated 2019).
Read-outs that look alike come from different tables or passages of the source.

Assays:
Format in all cases: biochemical
human Yes1 enzyme = target: T1, human Yes1 enzyme (Homo sapiens, UniProt P07947); test: Yes1 enzyme inhibitory activity (time-resolved fluorometry, biotinylated peptide phosphorylation); settings: read-out: YES_IC50
T1 construct: made in house
Summary of the method: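 Inhibition was expressed against a compound-free control to give IC50, using TR-FRET read-out (Eu-cryptate anti-pTyr antibody, streptavidin-XL665).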

human Src enzyme = target: T2, human Src enzyme (Homo sapiens, UniProt P12931); test: Src enzyme inhibitory activity (time-resolved fluorometry, biotinylated peptide phosphorylation); settings: read-out: SRC_IC50
T2 construct: purchased Carna Biosciences, Inc. 08-173
Summary of the method: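 Compounds were tested for blocking tyrosine phosphorylation of a biotinylated peptide substrate by recombinant human Src. Phosphorylated product was quantified by time-resolved fluorometry using europium cryptate and XL665 conjugates, and IC50 was calculated against the compound-free control.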

human Lck enzyme = target: T3, human Lck enzyme (Homo sapiens, UniProt P06239); test: Lck enzyme inhibitory activity (time-resolved fluorometry, biotinylated peptide phosphorylation); settings: read-out: LCK_IC50
T3 construct: purchased Carna Biosciences, Inc. 08-170
Summary of the method: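 Readout pairs a europium cryptate-labelled anti-phosphotyrosine antibody with XL665-streptavidin, measured by time-resolved fluorescence. IC50 derived from percent inhibition against untreated controls.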

[1] = biotinylated peptide phosphorylation

T2 sequence (P12931 whole entry): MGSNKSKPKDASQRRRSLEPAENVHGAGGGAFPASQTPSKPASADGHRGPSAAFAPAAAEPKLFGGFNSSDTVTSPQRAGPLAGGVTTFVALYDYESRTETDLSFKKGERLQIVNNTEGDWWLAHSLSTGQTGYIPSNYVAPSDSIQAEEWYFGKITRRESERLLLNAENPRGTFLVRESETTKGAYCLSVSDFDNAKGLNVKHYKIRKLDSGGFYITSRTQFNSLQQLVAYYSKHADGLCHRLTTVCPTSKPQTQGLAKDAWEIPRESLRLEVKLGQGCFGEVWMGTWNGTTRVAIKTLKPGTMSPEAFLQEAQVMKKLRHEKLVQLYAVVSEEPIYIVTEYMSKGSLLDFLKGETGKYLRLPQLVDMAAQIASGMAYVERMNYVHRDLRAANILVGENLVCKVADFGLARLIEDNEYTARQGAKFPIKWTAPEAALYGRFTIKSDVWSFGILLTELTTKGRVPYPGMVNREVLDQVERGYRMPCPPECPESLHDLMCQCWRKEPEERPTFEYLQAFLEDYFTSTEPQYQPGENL
T1 sequence (P07947 whole entry): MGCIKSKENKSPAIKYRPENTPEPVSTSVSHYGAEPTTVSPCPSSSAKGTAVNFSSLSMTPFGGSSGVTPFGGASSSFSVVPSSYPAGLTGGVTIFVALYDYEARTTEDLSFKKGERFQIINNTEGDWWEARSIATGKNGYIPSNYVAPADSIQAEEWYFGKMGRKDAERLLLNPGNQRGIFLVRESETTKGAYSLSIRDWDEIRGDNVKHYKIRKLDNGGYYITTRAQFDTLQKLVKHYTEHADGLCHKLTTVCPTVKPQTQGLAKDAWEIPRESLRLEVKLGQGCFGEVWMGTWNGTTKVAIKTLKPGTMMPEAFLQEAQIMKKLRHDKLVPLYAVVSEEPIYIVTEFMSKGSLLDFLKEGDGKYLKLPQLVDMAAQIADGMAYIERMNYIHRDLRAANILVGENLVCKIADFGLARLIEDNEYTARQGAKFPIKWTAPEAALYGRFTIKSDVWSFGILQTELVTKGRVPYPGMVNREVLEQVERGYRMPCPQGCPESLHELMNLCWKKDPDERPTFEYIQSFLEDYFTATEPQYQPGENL
T3 sequence (P06239 whole entry): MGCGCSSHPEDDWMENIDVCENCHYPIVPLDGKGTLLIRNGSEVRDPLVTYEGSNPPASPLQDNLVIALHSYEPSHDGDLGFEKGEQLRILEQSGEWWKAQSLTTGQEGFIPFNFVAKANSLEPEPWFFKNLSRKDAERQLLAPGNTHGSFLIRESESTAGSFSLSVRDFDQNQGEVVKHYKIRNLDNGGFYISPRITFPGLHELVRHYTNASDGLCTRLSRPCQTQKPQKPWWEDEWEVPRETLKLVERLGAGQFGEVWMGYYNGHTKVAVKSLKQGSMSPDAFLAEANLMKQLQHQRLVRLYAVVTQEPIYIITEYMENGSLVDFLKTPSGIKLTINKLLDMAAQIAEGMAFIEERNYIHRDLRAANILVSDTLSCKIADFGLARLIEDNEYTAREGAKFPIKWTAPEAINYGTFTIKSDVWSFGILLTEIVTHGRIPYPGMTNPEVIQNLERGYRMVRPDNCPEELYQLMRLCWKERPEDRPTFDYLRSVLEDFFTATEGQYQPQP

Compound	IC50 (human Yes1 enzyme)	IC50 (human Src enzyme)	IC50 (human Lck enzyme)	IC50 (human Yes1 enzyme; [1])	IC50 (human Src enzyme; [1])	IC50 (human Lck enzyme; [1])
Cc1cc(-n2ncc(C(=O)c3cc4cc(OC5CCN(C(C)C)CC5)c(N5C(=O)N[C@@H](Cc6ccccc6)C5=O)cc4[nH]3)c2N)ccc1Oc1ccccc1F [Example 5-1-294, (5S)-3-[2-[5-amino-1-[4-(2-fluorophenoxy)-3-methylphenyl]pyrazole-4-carbonyl]-5-(1-propan-2-ylpiperidin-4-yl)oxy-1H-indol-6-yl]-5-benzylimidazolidine-2,4-dione]	2.2 nM	960 nM	110 nM	–	–	–
Cc1cc(Oc2ccccc2)cc(F)c1-n1ncc(C(=O)c2cc3cc(NS(C)(=O)=O)c(F)cc3[nH]2)c1N [Example 4-2-103, N-[2-[5-amino-1-(2-fluoro-6-methyl-4-phenoxyphenyl)pyrazole-4-carbonyl]-6-fluoro-1H-indol-5-yl]methanesulfonamide]	–	–	–	0.41 nM	7 nM	0.97 nM
Cc1cc(Oc2c(F)cccc2F)ncc1-n1ncc(C(=O)c2cc3cc(OCC(F)F)c(NS(=O)(=O)c4cccc(C#N)c4)cc3[nH]2)c1N [Example 5-1-382, N-[2-[5-amino-1-[6-(2,6-difluorophenoxy)-4-methylpyridin-3-yl]pyrazole-4-carbonyl]-5-(2,2-difluoroethoxy)-1H-indol-6-yl]-3-cyanobenzenesulfonamide]	2.5 nM	260 nM	31 nM	–	–	–
Cc1cc(Oc2ccccc2F)ccc1-n1ncc(C(=O)c2cc3cc(OCC(F)F)c(N4C(=O)[C@@H]5C[C@H](NC(=O)OCC(C)C)CN5C4=O)cc3[nH]2)c1N [Example 5-1-274, 2-methylpropyl N-[(6S,7aS)-2-[2-[5-amino-1-[4-(2-fluorophenoxy)-2-methylphenyl]pyrazole-4-carbonyl]-5-(2,2-difluoroethoxy)-1H-indol-6-yl]-1,3-dioxo-5,6,7,7a-tetrahydropyrrolo[1,2-c]imidazol-6-yl]carbamate]	2.1 nM	45 nM	17 nM	–	–	–
Cc1cc(Oc2c(F)cccc2F)ncc1-n1ncc(C(=O)c2cc3cc(OCC(F)F)c(NS(=O)(=O)c4ccc(Cl)cc4)cc3[nH]2)c1N [Example 5-1-298, N-[2-[5-amino-1-[6-(2,6-difluorophenoxy)-4-methylpyridin-3-yl]pyrazole-4-carbonyl]-5-(2,2-difluoroethoxy)-1H-indol-6-yl]-4-chlorobenzenesulfonamide]	8.9 nM	630 nM	93 nM	–	–	–
Cc1cc2cc(C(=O)c3cnn(-c4ccc(Oc5ccccc5F)c(F)c4F)c3N)[nH]c2cc1NS(C)(=O)=O [Example 5-1-214, N-[2-[5-amino-1-[2,3-difluoro-4-(2-fluorophenoxy)phenyl]pyrazole-4-carbonyl]-5-methyl-1H-indol-6-yl]methanesulfonamide]	0.99 nM	52 nM	11 nM	–	–	–
Cc1cc(-n2ncc(C(=O)c3cc4cc(OC5CCN(C6CS(=O)(=O)C6)CC5)c(-c5ccccc5F)cc4[nH]3)c2N)ccc1Oc1ccccc1F [Example 5-1-309, [5-amino-1-[4-(2-fluorophenoxy)-3-methylphenyl]pyrazol-4-yl]-[5-[1-(1,1-dioxothietan-3-yl)piperidin-4-yl]oxy-6-(2-fluorophenyl)-1H-indol-2-yl]methanone]	12 nM	3600 nM	410 nM	–	–	–
Cc1cc(Oc2ccccc2F)cc(F)c1-n1ncc(C(=O)c2cc3cc(F)c(NS(C)(=O)=O)cc3[nH]2)c1N [Example 4-7-003, N-[2-[5-amino-1-[2-fluoro-4-(2-fluorophenoxy)-6-methylphenyl]pyrazole-4-carbonyl]-5-fluoro-1H-indol-6-yl]methanesulfonamide]	–	–	–	1 nM	19 nM	7.1 nM
Cc1cc(Oc2ccccc2F)ccc1-n1ncc(C(=O)c2cc3cc(F)c(N4C(=O)C(C)(C)NC4=S)cc3[nH]2)c1N [Example 5-1-126, 3-[2-[5-amino-1-[4-(2-fluorophenoxy)-2-methylphenyl]pyrazole-4-carbonyl]-5-fluoro-1H-indol-6-yl]-5,5-dimethyl-2-sulfanylideneimidazolidin-4-one]	0.87 nM	64 nM	15 nM	–	–	–
Cc1cc(Oc2c(F)cccc2F)ncc1-n1ncc(C(=O)c2cc3cc(N4CCOCC4)c(Br)cc3[nH]2)c1N [Example 5-1-155, [5-amino-1-[6-(2,6-difluorophenoxy)-4-methylpyridin-3-yl]pyrazol-4-yl]-(6-bromo-5-morpholin-4-yl-1H-indol-2-yl)methanone]	1.6 nM	22 nM	12 nM	–	–	–
Cc1cc(Oc2c(F)cccc2F)ncc1-n1ncc(C(=O)c2cc3cc(OC(F)F)c(N4C(=O)NC(C)(C)C4=O)cc3[nH]2)c1N [Example 4-23-034, 3-[2-[5-amino-1-[6-(2,6-difluorophenoxy)-4-methylpyridin-3-yl]pyrazole-4-carbonyl]-5-(difluoromethoxy)-1H-indol-6-yl]-5,5-dimethylimidazolidine-2,4-dione]	–	–	–	1.5 nM	54 nM	6.7 nM
Cc1cc(Oc2ccc(F)cc2)ncc1-n1ncc(C(=O)c2cc3cc(F)c(NS(=O)(=O)CCCF)cc3[nH]2)c1N [Example 4-2-027, N-[2-[5-amino-1-[6-(4-fluorophenoxy)-4-methylpyridin-3-yl]pyrazole-4-carbonyl]-5-fluoro-1H-indol-6-yl]-3-fluoropropane-1-sulfonamide]	–	–	–	10 nM	95 nM	30 nM
Cc1cc(-n2ncc(C(=O)c3cc4cc(OC5CCN(C(C)C)CC5)c(Cl)cc4[nH]3)c2N)ccc1Oc1cccc(F)c1 [Example 5-1-209, [5-amino-1-[4-(3-fluorophenoxy)-3-methylphenyl]pyrazol-4-yl]-[6-chloro-5-(1-propan-2-ylpiperidin-4-yl)oxy-1H-indol-2-yl] methanone]	4.4 nM	420 nM	98 nM	–	–	–
Cc1cc(Oc2ccccc2F)ccc1-n1ncc(C(=O)c2cc3cc(OCC(F)F)c(NS(=O)(=O)c4cccnc4)cc3[nH]2)c1N [Example 5-1-418, N-[2-[5-amino-1-[4-(2-fluorophenoxy)-2-methylphenyl]pyrazole-4-carbonyl]-5-(2,2-difluoroethoxy)-1H-indol-6-yl]pyridine-3-sulfonamide]	–	–	–	1.4 nM	78 nM	21 nM
Cc1cc(Oc2c(F)cccc2F)ncc1-n1ncc(C(=O)c2cc3cc(OCC(F)F)c(N4CCCS4(=O)=O)cc3[nH]2)c1N [Example 4-25-011, [5-amino-1-[6-(2,6-difluorophenoxy)-4-methylpyridin-3-yl]pyrazol-4-yl]-[5-(2,2-difluoroethoxy)-6-(1,1-dioxo-1,2-thiazolidin-2-yl)-1H-indol-2-yl]methanone]	–	–	–	1.4 nM	11 nM	4.1 nM
COc1cc2cc(C(=O)c3cnn(-c4c(C)cc(Oc5ccccc5F)cc4F)c3N)[nH]c2cc1N1CCCS1(=O)=O [Example 4-2-120, [5-amino-1-[2-fluoro-4-(2-fluorophenoxy)-6-methylphenyl]pyrazol-4-yl]-[6-(1,1-dioxo-1,2-thiazolidin-2-yl)-5-methoxy-1H-indol-2-yl]methanone]	–	–	–	1 nM	28 nM	4 nM
